The values below come from patent US10933056B2, “3-(1H-pyrazol-4-yl)pyridine allosteric modulators of the M4 muscarinic acetylcholine receptor” (Merck Sharp & Dohme Corp., priority 2015, dated 2021).

Molecules are shown by their SMILES.

The assay has as its target T1, human M4 muscarinic acetylcholine receptor (Homo sapiens, UniProt P08173).
T1 construct: expressed in transfected cells; host or cells: CHO-K1
T1 sequence (P08173 1-479): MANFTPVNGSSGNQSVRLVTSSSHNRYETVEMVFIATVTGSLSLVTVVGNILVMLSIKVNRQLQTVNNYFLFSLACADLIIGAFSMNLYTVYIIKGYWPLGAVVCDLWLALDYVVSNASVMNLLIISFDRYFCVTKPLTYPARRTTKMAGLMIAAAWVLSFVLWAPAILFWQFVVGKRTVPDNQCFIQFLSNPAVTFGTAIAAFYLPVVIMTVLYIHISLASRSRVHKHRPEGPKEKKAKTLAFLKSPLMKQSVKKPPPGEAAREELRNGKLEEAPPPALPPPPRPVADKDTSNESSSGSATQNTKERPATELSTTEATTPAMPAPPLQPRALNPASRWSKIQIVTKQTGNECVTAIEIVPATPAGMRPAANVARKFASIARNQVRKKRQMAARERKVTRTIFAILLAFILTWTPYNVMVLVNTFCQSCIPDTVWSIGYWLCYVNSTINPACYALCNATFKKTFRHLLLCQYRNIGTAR
Nature of the assay: human FLIPR-based M4 PAM assay (calcium mobilization in CHO-K1 cells with human M4 receptor and Gαqi5). Type of assay: cell-based. The conditions noted are these: inflection point of dose response curve, acetylcholine at 20% of maximum response, FLIPR Tetra, read-out: M4 PAM IP. A digest of the protocol: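 CHO-K1 cells stably expressing human M4 and chimeric Gαqi5 were dye-loaded ~1 h at 37° C. Test compound was added with fluorescence recorded 4 min, then acetylcholine at EC20 (sometimes a further EC70 addition) with reading 3.5 min. Value is the inflection point of a 4-parameter logistic fit.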
For orientation: Calcium flux is commonly read through the fluorescence of an indicator in the cells.

`COCCN1Cc2ncc(-c3nc4c(cc3-c3cnn(CC5(C)CCCC5)c3)CCC4)cc2C1=O` [Example 70, 6-(2-methoxyethyl)-3-(3-(1-((1-methylcyclopentyl)methyl)-1H-pyrazol-4-yl)-6,7-dihydro-5H-cyclopenta[b]pyridin-2-yl)-6,7-dihydro-5H-pyrrolo[3,4-b]pyridin-5-one]: the EC50 amounted to 0.047 µM.

Take `CN1C(=O)c2cc(-c3nc4c(cc3-c3cnn(CC5(C)CCCC5)c3)CCC4)cnc2C1(C)C` [Example 71, 6,7,7-trimethyl-3-(3-(1-((1-methylcyclopentyl)methyl)-1H-pyrazol-4-yl)-6,7-dihydro-5H-cyclopenta[b]pyridin-2-yl)-6,7-dihydro-5H-pyrrolo[3,4-b]pyridin-5-one]: the EC50 was 0.035 µM.

Take `CN1C(=O)c2cc(-c3nc(C#N)ccc3-c3cnn(CC4(C)CCCC4)c3)ccc2C1(C)C` [Example 72]: the EC50 turned out to be 0.041 µM.

In the case of `COCCN1Cc2ccc(-c3nc4c(cc3-c3cnn(CC5(C)CCCC5)c3)CCC4)cc2C1=O` [Example 73, 2-(2-methoxyethyl)-6-(3-(1-((1-methylcyclopentyl)methyl)-1H-pyrazol-4-yl)-6,7-dihydro-5H-cyclopenta[b]pyridin-2-yl)isoindolin-1-one], the EC50 worked out at 0.052 µM.

As for `CN1Cc2ncc(-c3nc4c(cc3-c3cnn(CC5(C)CCCC5)c3F)CCC4)cc2C1=O` [Example 74, 3-(3-(5-fluoro-1-((1-methylcyclopentyl)methyl)-1H-pyrazol-4-yl)-6,7-dihydro-5H-cyclopenta[b]pyridin-2-yl)-6-methyl-6,7-dihydro-5H-pyrrolo[3,4-b]pyridin-5-one], the EC50 was 0.024 µM.

Consider `Cc1cc(-c2cnn(CC3(C)CCCC3)c2F)c(-c2ccc3c(c2)C(=O)N(C)C3)nc1Cl` [Example 75, 6-(6-chloro-3-(5-fluoro-1-((1-methylcyclopentyl)methyl)-1H-pyrazol-4-yl)-5-methylpyridin-2-yl)-2-methylisoindolin-1-one], for which the EC50 stood at 0.08 µM.

In the case of `Cc1ccc(-c2cnn(CC3CCCC3)c2F)c(-c2ccc3c(c2)C(=O)N(C)C3)n1` [Example 76, 6-(3-(1-(cyclopentylmethyl)-5-fluoro-1H-pyrazol-4-yl)-6-methylpyridin-2-yl)-2-methylisoindolin-1-one], the EC50 came to 0.009 µM.

Regarding `Cc1cc(-c2cnn(CC3(C)CCCC3)c2)c(-c2ccc3c(c2)C(=O)N(C)C3)nc1CO` [Example 77, 6-(6-(hydroxymethyl)-5-methyl-3-(1-((1-methylcyclopentyl)methyl)-1H-pyrazol-4-yl)pyridin-2-yl)-2-methylisoindolin-1-one], the EC50 was 0.085 µM.

`CN1Cc2ccc(-c3nc(C#N)c(Cl)cc3-c3cnn(CC4(C)CCCC4)c3)cc2C1=O` [Example 78, 3-chloro-6-(2-methyl-3-oxoisoindolin-5-yl)-5-(1-((1-methylcyclopentyl)methyl)-1H-pyrazol-4-yl)picolinonitrile]: the EC50 came to 0.032 µM.

As to `CN1Cc2ccc(-c3nc(C#N)ccc3-c3cnn(CC4(C)CCCC4)c3Cl)cc2C1=O` [Example 79, 5-(5-chloro-1-((1-methylcyclopentyl)methyl)-1H-pyrazol-4-yl)-6-(2-methyl-3-oxoisoindolin-5-yl)picolinonitrile], the EC50 came to 0.108 µM.

`CN1Cc2ncc(-c3nc(C(F)F)ccc3-c3cnn(CC4(C)CCCC4)c3)cc2C1=O` [Example 80, 3-(6-(difluoromethyl)-3-(1-((1-methylcyclopentyl)methyl)-1H-pyrazol-4-yl)pyridin-2-yl)-6-methyl-6,7-dihydro-5H-pyrrolo[3,4-b]pyridin-5-one]: the EC50 is 0.026 µM.

For `CN1Cc2ncc(-c3nc(C(F)(F)F)ccc3-c3cnn(CC4(C)CCCC4)c3)cc2C1=O` [Example 81, 6-methyl-3-(3-(1-((1-methylcyclopentyl)methyl)-1H-pyrazol-4-yl)-6-(trifluoromethyl)pyridin-2-yl)-6,7-dihydro-5H-pyrrolo[3,4-b]pyridin-5-one], the EC50 came out at 0.046 µM.

For the compound `CC1(Cn2cc(-c3ccc(C#N)nc3-c3ccc4c(c3)C(=O)N(C3COC3)C4)cn2)CCCC1` [Example 82, 5-(1-((1-methylcyclopentyl)methyl)-1H-pyrazol-4-yl)-6-(2-(oxetan-3-yl)-3-oxoisoindolin-5-yl)picolinonitrile], the EC50 amounted to 0.31 µM.

As for `O=C1c2cc(-c3ncccc3-c3cnn(CC4CCCC4)c3)ccc2CN1c1ccccc1` [Example 83, 6-(3-(1-(cyclopentylmethyl)-1H-pyrazol-4-yl)pyridin-2-yl)-2-phenylisoindolin-1-one], the EC50 stood at 0.1 µM.

Take `O=C1c2cc(-c3ncccc3-c3cnn(CC4CCCC4)c3)ccc2CN1CC1CC1` [Example 84, 6-(3-(1-(Cyclopentylmethyl)-1H-pyrazol-4-yl)pyridin-2-yl)-2-(cyclopropylmethyl)isoindolin-1-one]: the EC50 came to 0.047 µM.

Consider `O=C1c2cc(-c3ncccc3-c3cnn(CC4CCCC4)c3)ccc2CN1CC1CCCO1` (stereo not drawn) [Example 85, 6-(3-(1-(cyclopentylmethyl)-1H-pyrazol-4-yl)pyridin-2-yl)-2-((tetrahydrofuran-2-yl)methyl)isoindolin-1-one], for which the EC50 was 0.06 µM.

For `O=C1c2cc(-c3ncccc3-c3cnn(CC4CCCC4)c3)ccc2CN1CC1CCC1` [Example 86, 2-(cyclobutylmethyl)-6-(3-(1-(cyclopentylmethyl)-1H-pyrazol-4-yl)pyridin-2-yl)isoindolin-1-one], the EC50 was found to be 0.062 µM.

Turning to `N#CC1(N2Cc3ccc(-c4ncccc4-c4cnn(CC5CCCC5)c4)cc3C2=O)CC1` [Example 87, 1-(6-(3-(1-(cyclopentylmethyl)-1H-pyrazol-4-yl)pyridin-2-yl)-1-oxoisoindolin-2-yl)cyclopropane-1-carbonitrile], the EC50 was found to be 0.319 µM.

On to `O=C1c2cc(-c3ncccc3-c3cnn(CC4CCCC4)c3)ccc2CN1C1COC1` [Example 88, 6-(3-(1-(cyclopentylmethyl)-1H-pyrazol-4-yl)pyridin-2-yl)-2-(oxetan-3-yl)isoindolin-1-one], for which the EC50 was determined as 0.24 µM.

In the case of `O=C1c2cc(-c3ncccc3-c3cnn(CC4CCCC4)c3)ccc2CN1C1CCC1` [Example 89, 2-cyclobutyl-6-(3-(1-(cyclopentylmethyl)-1H-pyrazol-4-yl)pyridin-2-yl)isoindolin-1-one], the EC50 came to 0.032 µM.

Turning to `CNC(=O)C1(N2Cc3ccc(-c4ncccc4-c4cnn(CC5CCCC5)c4)cc3C2=O)CC1` [Example 90, 1-(6-(3-(1-(cyclopentylmethyl)-1H-pyrazol-4-yl)pyridin-2-yl)-1-oxoisoindolin-2-yl)-N-methylcyclopropane-1-carboxamide], the EC50 worked out at 0.359 µM.

Turning to `NS(=O)(=O)c1ccc(CCN2Cc3ccc(-c4ncccc4-c4cnn(CC5CCCC5)c4)cc3C2=O)cc1` [Example 91, 4-(2-(6-(3-(1-(cyclopentylmethyl)-1H-pyrazol-4-yl)pyridin-2-yl)-1-oxoisoindolin-2-yl)ethyl)benzenesulfonamide], the EC50 worked out at 0.049 µM.

As to `O=C1c2cc(-c3ncccc3-c3cnn(CC4CCCC4)c3)ccc2CN1CCc1ccccc1` [Example 92, 6-(3-(1-(cyclopentylmethyl)-1H-pyrazol-4-yl)pyridin-2-yl)-2-phenethylisoindolin-1-one], the EC50 worked out at 0.045 µM.

Consider `O=C1c2cc(-c3ncccc3-c3cnn(CC4CCCC4)c3)ccc2CN1C1CC1` [Example 93, 6-(3-(1-(cyclopentyl-methyl)-1H-pyrazol-4-yl)pyridin-2-yl)-2-cyclopropylisoindolin-1-one], for which the EC50 came out at 0.058 µM.

For the compound `O=C1c2cc(-c3ncccc3-c3cnn(CC4CCCC4)c3)ccc2CN1CCc1ccc(O)cc1` [Example 94, 6-(3-(1-(cyclopentylmethyl)-1H-pyrazol-4-yl)pyridin-2-yl)-2-(4-hydroxyphenethyl)isoindolin-1-one], the EC50 was 0.029 µM.

With `CN1Cc2ncc(-c3nc(C#N)ccc3-c3cnn(CC4(C)CCCC4)c3)cc2C1=O` [Example 95, 6-(6-Methyl-5-oxo-6,7-dihydro-5H-pyrrolo[3,4-b]pyridin-3-yl)-5-(1-((1-methylcyclopentyl)methyl)-1H-pyrazol-4-yl)picolinonitrile], the EC50 came out at 0.021 µM.

With `CN1Cc2ccc(-c3ncccc3-c3cnn(CC4CCCC4)c3)cc2C1=O` [Example 96, 6-(3-(1-(cyclopentylmethyl)-1H-pyrazol-4-yl)pyridin-2-yl)-2-methylisoindolin-1-one], the EC50 worked out at 0.056 µM.

For `Cc1ccc(-c2cnn(CC3CCCC3)c2)c(-c2ccc3c(c2)C(=O)N(C)C3)n1` [Example 97, 6-(3-(1-(cyclopentylmethyl)-1H-pyrazol-4-yl)-6-methylpyridin-2-yl)-2-methylisoindolin-1-one], the EC50 worked out at 0.016 µM.

Turning to `Cc1ccc(-c2cnn(CC3(C)CCCC3)c2)c(-c2ccc3c(c2)C(=O)N(C)C3=O)n1` [Example 98, 2-methyl-5-(6-methyl-3-(1-((1-methylcyclopentyl)methyl)-1H-pyrazol-4-yl)pyridin-2-yl)isoindoline-1,3-dione], the EC50 was determined as 0.029 µM.

Take `Cc1ccc(-c2cnn(CC3(C)CCCC3)c2)c(-c2ccc3c(c2)C(=O)NC3=O)n1` [Example 99, 5-(6-methyl-3-(1-((1-methylcyclopentyl)methyl)-1H-pyrazol-4-yl)pyridin-2-yl)isoindoline-1,3-dione]: the EC50 was found to be 0.019 µM.
